Experimental data from PubChem BioAssay (NCI).
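Following 48 hours of exposure in 96-well plates, responses at five concentrations were used to interpolate endpoints linearly. At the GI50, growth is halved. TGI: total growth inhibition.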

How the values were obtained:
Test in all cases: inhibition of tumour cell growth, NCI panel, 48 h
HCT-116 colon = system: HCT-116 colon
IGROV1 ovarian = system: IGROV1 ovarian
A549 NSCLC = system: A549 NSCLC
HL-60(TB) leukemia = system: HL-60(TB) leukemia
NCI-H522 lung = system: NCI-H522 lung
UACC-62 melanoma = system: UACC-62 melanoma
NCI/ADR-RES ovarian = system: NCI/ADR-RES ovarian
RXF 393 renal = system: RXF 393 renal
T-47D breast = system: T-47D breast
SR leukemia = system: SR leukemia
DU-145 prostate = system: DU-145 prostate
SF-539 CNS = system: SF-539 CNS
BT-549 breast = system: BT-549 breast
786-0 renal = system: 786-0 renal
MOLT-4 leukemia = system: MOLT-4 leukemia
CAKI-1 renal = system: CAKI-1 renal
HCC-2998 colon = system: HCC-2998 colon
HT29 colon = system: HT29 colon
SNB-19 CNS = system: SNB-19 CNS
ACHN renal = system: ACHN renal
OVCAR-3 ovarian = system: OVCAR-3 ovarian
MCF7 breast = system: MCF7 breast
UO-31 renal = system: UO-31 renal
SK-OV-3 ovarian = system: SK-OV-3 ovarian
NCI-H23 lung = system: NCI-H23 lung
SW-620 colon = system: SW-620 colon
K-562 leukemia = system: K-562 leukemia
SF-268 CNS = system: SF-268 CNS
NCI-H226 lung = system: NCI-H226 lung

COc1ccc(/C=C(\C#N)c2ccc(OC)cc2)cc1
GI50 (HCT-116 colon): 7.15 µM | TGI (HCT-116 colon): > 100 µM | GI50 (IGROV1 ovarian): 46.1 µM | TGI (IGROV1 ovarian): > 100 µM | GI50 (A549 NSCLC): > 100 µM | TGI (A549 NSCLC): > 100 µM | GI50 (HL-60(TB) leukemia): 13.5 µM | TGI (HL-60(TB) leukemia): > 100 µM | GI50 (NCI-H522 lung): 42.8 µM | TGI (NCI-H522 lung): > 100 µM | GI50 (UACC-62 melanoma): 10.3 µM | TGI (UACC-62 melanoma): > 100 µM | GI50 (NCI/ADR-RES ovarian): 3.13 µM | TGI (NCI/ADR-RES ovarian): 29.3 µM | GI50 (RXF 393 renal): 13.7 µM | TGI (RXF 393 renal): > 100 µM | GI50 (T-47D breast): 32.2 µM | TGI (T-47D breast): > 100 µM | GI50 (SR leukemia): 2.07 µM | TGI (SR leukemia): > 100 µM | GI50 (DU-145 prostate): 14.9 µM | TGI (DU-145 prostate): > 100 µM | GI50 (SF-539 CNS): 20.7 µM | TGI (SF-539 CNS): > 100 µM | GI50 (BT-549 breast): 22.9 µM | TGI (BT-549 breast): > 100 µM | GI50 (786-0 renal): > 100 µM | TGI (786-0 renal): > 100 µM | GI50 (MOLT-4 leukemia): 5.49 µM | TGI (MOLT-4 leukemia): > 100 µM | GI50 (CAKI-1 renal): 13.1 µM | TGI (CAKI-1 renal): > 100 µM | GI50 (HCC-2998 colon): 7.38 µM | TGI (HCC-2998 colon): > 100 µM | GI50 (HT29 colon): 7.1 µM | TGI (HT29 colon): > 100 µM | GI50 (SNB-19 CNS): 82.8 µM | TGI (SNB-19 CNS): > 100 µM | GI50 (ACHN renal): 76.1 µM | TGI (ACHN renal): > 100 µM | GI50 (OVCAR-3 ovarian): 7.59 µM | TGI (OVCAR-3 ovarian): 52 µM | GI50 (MCF7 breast): 41.5 µM | TGI (MCF7 breast): > 100 µM | GI50 (UO-31 renal): > 100 µM | TGI (UO-31 renal): > 100 µM | GI50 (SK-OV-3 ovarian): 42 µM | TGI (SK-OV-3 ovarian): > 100 µM | GI50 (NCI-H23 lung): 9.77 µM | TGI (NCI-H23 lung): > 100 µM | GI50 (SW-620 colon): 5.81 µM | TGI (SW-620 colon): > 100 µM | GI50 (K-562 leukemia): 2.78 µM | TGI (K-562 leukemia): > 100 µM | GI50 (SF-268 CNS): > 100 µM | TGI (SF-268 CNS): > 100 µM | GI50 (NCI-H226 lung): > 100 µM | TGI (NCI-H226 lung): > 100 µM
